Assay results taken from article PMC9322451 (Clinical Pharmacology in Drug Development, 2022).
pIC50: −log10 of the molar value. Like-named read-outs stand apart in the source and are kept apart here.

Assays:
[1] = system: breast cancer resistance protein; parameters: method as in unpublished data; conditions: ref unpublished data; cited from earlier work
[2] = system: organic anion transporting polypeptides; parameters: method as in unpublished data; conditions: ref unpublished data, read-out: half maximal inhibitory concentration; cited from earlier work
[3] = system: P‐glycoprotein (P‐gp); parameters: method as in unpublished data; conditions: ref unpublished data; cited from earlier work
[4] = system: organic anion and cation transporters; parameters: method as in unpublished data; conditions: ref unpublished data, read-out: half maximal inhibitory concentration; cited from earlier work
[5] = Phase 1 part A: PK after single and multiple once-daily oral doses; format: in vivo, human; conditions: for Dose-normalized AUClast / Dose-normalized AUCτ / Dose-normalized AUC∞ / Dose-normalized Cmax: geometric least squares mean; for concentration at 30 day / Tmax / half-life / AUC / AUC(0-inf) / AUC(0-t) / Cmax: human, plasma
Method: The study was conducted sequentially in 2 parts. […] Eligible participants were admitted to the clinical unit for single‐dose evaluation from days −2 to 2 and from days 29 to 31 for steady‐state PK and safety evaluation. Participants self‐administered daily doses after an overnight fast of at least 10 hours on days 4 to 30, with outpatient visits on days 3, 4, 7, 14, 21, 32, 33, and 61 (Figure S1).
For part A, blood samples for PK assessments were collected following administration on days 1 and 30 at 0 (predose), 0.5, 0.75, 1, 1.5, 2, 3, 4, 8, 12, 24, 48, and 72 hours after dosing. In addition, predose PK samples were collected on days 4, 7, 14, and 21. PK parameters following single and multiple once‐daily dosing were evaluated using noncompartmental analysis, including the AUC over a dosing interval (AUCτ), AUC from time 0 to the last time with quantifiable concentration (AUClast), AUC from time 0 to infinite time (AUC∞), maximum plasma concentration (Cmax), minimum plasma concentration, time to maximum plasma concentration (tmax), terminal elimination half‐life (t1/2), apparent total drug clearance following oral administration (CL/F), and predose concentration.
All statistical analyses were performed using SAS version 9.3 or higher (SAS Institute Inc., Cary, North Carolina). Analysis of PK data was performed using WinNonlin Professional Software version 8.0 or higher (Certara, LP, Princeton, New Jersey). […] Categorical data were summarized by race and treatment group in terms of number of participants with data at relevant time points, frequency counts, and percentages. PK concentrations below the limit of quantification (BLQ) at time 0 on days 1 and 30 were considered 0. Postdose BLQ data were considered missing for PK parameter calculation. For mean concentrations and graphic presentation, all BLQ data were imputed as 0.

[6] = Multiple dosing (Day 30), Japanese n = 23, 3 dose groups pooled
[7] = Multiple dosing (Day 30), White n = 24, 3 dose groups pooled
[8] = Single dose (Day 1), Japanese n = 25, 3 dose groups pooled
[9] = Single dose (Day 1), White n = 24, 3 dose groups pooled
[10] = po, 10 mg, Day 1, 10 mg, Japanese, mean (CV%)
[11] = po, 10 mg, Day 1, 10 mg, White, mean (CV%)

Cn1c(=O)oc2ccc(-c3ccc(C[C@@H](C#N)NC(=O)[C@@H]4CNCCCO4)cc3)cc21 [Brensocatib]
substrate status [1]: substrate
pIC50 [2]: < 4.96
substrate status [3]: substrate
pIC50 [4]: < 4.96
Mean steady‐state CL/F ([5]; 10 mg, Japanese): 10.1 L/h
Mean steady‐state CL/F ([5]; 10 mg, White): 8.5 L/h
Mean steady‐state CL/F ([5]; 25 mg, Japanese): 6.4 L/h
Mean steady‐state CL/F ([5]; 25 mg, White): 7.0 L/h
Mean steady‐state CL/F ([5]; 40 mg, White): 6.5 L/h
Ctrough ([5]; Day 30, 10 mg once daily, Japanese, mean (CV%)): 15.64 (48.2) ng/mL
Ctrough ([5]; Day 30, 10 mg once daily, White, mean (CV%)): 31.65 (52.6) ng/mL
Ctrough ([5]; Day 30, 25 mg once daily, Japanese, mean (CV%)): 93.05 (72.3) ng/mL
Ctrough ([5]; Day 30, 25 mg once daily, White, mean (CV%)): 83.24 (48.2) ng/mL
Ctrough ([5]; Day 30, 40 mg once daily, Japanese, mean (CV%)): 81.86 (101.6) ng/mL
Ctrough ([5]; Day 30, 40 mg once daily, White, mean (CV%)): 92.95 (90) ng/mL
Dose-normalized AUClast [5, 6]: 172.9 (ng ‧ h/mL)/mg
Dose-normalized AUCτ [5, 6]: 107.6 (ng ‧ h/mL)/mg
Dose-normalized AUC∞ [5, 6]: 194.9 (ng ‧ h/mL)/mg
Dose-normalized Cmax [5, 6]: 8.5 (ng/mL)/mg
Dose-normalized AUClast [5, 7]: 243.8 (ng ‧ h/mL)/mg
Dose-normalized AUCτ [5, 7]: 144.8 (ng ‧ h/mL)/mg
Dose-normalized AUC∞ [5, 7]: 285.4 (ng ‧ h/mL)/mg
Dose-normalized Cmax [5, 7]: 10.6 (ng/mL)/mg
Dose-normalized AUClast [5, 8]: 94.0 (ng ‧ h/mL)/mg
Dose-normalized AUCτ [5, 8]: 62.5 (ng ‧ h/mL)/mg
Dose-normalized AUC∞ [5, 8]: 103.9 (ng ‧ h/mL)/mg
Dose-normalized Cmax [5, 8]: 6.1 (ng/mL)/mg
Dose-normalized AUClast [5, 9]: 118.8 (ng ‧ h/mL)/mg
Dose-normalized AUCτ [5, 9]: 75.4 (ng ‧ h/mL)/mg
Dose-normalized AUC∞ [5, 9]: 133.9 (ng ‧ h/mL)/mg
Dose-normalized Cmax [5, 9]: 6.9 (ng/mL)/mg
concentration at 30 day ([5]; oral, 10 mg, Day 30, 10 mg once daily, Japanese, mean (CV%), read-out: Cavg): 43.8 ng/mL
concentration at 30 day ([5]; oral, 10 mg, Day 30, 10 mg once daily, Japanese, mean (CV%), read-out: Cmin): 19.6 ng/mL
concentration at 30 day ([5]; oral, 10 mg, Day 30, 10 mg once daily, White, mean (CV%), read-out: Cavg): 49.4 ng/mL
concentration at 30 day ([5]; oral, 10 mg, Day 30, 10 mg once daily, White, mean (CV%), read-out: Cmin): 26.3 ng/mL
concentration at 30 day ([5]; oral, 25 mg, Day 30, 25 mg once daily, Japanese, mean (CV%), read-out: Cavg): 174 ng/mL
concentration at 30 day ([5]; oral, 25 mg, Day 30, 25 mg once daily, Japanese, mean (CV%), read-out: Cmin): 98.8 ng/mL
concentration at 30 day ([5]; oral, 25 mg, Day 30, 25 mg once daily, White, mean (CV%), read-out: Cavg): 161 ng/mL
concentration at 30 day ([5]; oral, 25 mg, Day 30, 25 mg once daily, White, mean (CV%), read-out: Cmin): 93.9 ng/mL
concentration at 30 day ([5]; oral, 40 mg, Day 30, 40 mg once daily, Japanese, mean (CV%), read-out: Cavg): 167 ng/mL
concentration at 30 day ([5]; oral, 40 mg, Day 30, 40 mg once daily, Japanese, mean (CV%), read-out: Cmin): 77.5 ng/mL
concentration at 30 day ([5]; oral, 40 mg, Day 30, 40 mg once daily, White, mean (CV%), read-out: Cavg): 269 ng/mL
concentration at 30 day ([5]; oral, 40 mg, Day 30, 40 mg once daily, White, mean (CV%), read-out: Cmin): 149 ng/mL
Tmax ([5]; oral, once‐daily administration, steady state, range over groups, read-out: Tmax): 1 to 1.8 h
half-life ([5]; oral, once‐daily administration, steady state, range over groups, read-out: elimination t1/2): 21.7 to 27.6 h
half-life ([5]; oral, range over groups (abstract), read-out: Elimination half‐life): 22 to 28 h
half-life ([5]; oral, single dose, Japanese participants, range over dose groups, read-out: Elimination t1/2): 18.4 to 22.4 h
half-life ([5]; oral, single dose, White participants, range over dose groups, read-out: Elimination t1/2): 21.5 to 24.5 h
Tmax ([5]; oral, single‐dose administration, range over groups, read-out: median tmax): 1 to 1.5 h
half-life ([5]; oral, steady state, Japanese participants, across the 3 dose groups, read-out: mean t1/2): 21.7 to 23.1 h
half-life ([5]; oral, steady state, White participants, across the 3 dose groups, read-out: mean t1/2): 22.9 to 27.6 h
AUC [5, 10]: 628 ng·h/mL
AUC(0-inf) [5, 10]: 1030 ng·h/mL
AUC(0-t) [5, 10]: 943 ng·h/mL
Cmax [5, 10]: 64.5 ng/mL
half-life ([5]; po, 10 mg, Day 1, 10 mg, Japanese, mean (CV%), read-out: t1/2 (converted)): 18.8 h
Tmax ([5]; po, 10 mg, Day 1, 10 mg, Japanese, median (range), read-out: Tmax): 1.02 h
AUC [5, 11]: 620 ng·h/mL
AUC(0-inf) [5, 11]: 1140 ng·h/mL
AUC(0-t) [5, 11]: 988 ng·h/mL
Cmax [5, 11]: 55.9 ng/mL
half-life ([5]; po, 10 mg, Day 1, 10 mg, White, mean (CV%), read-out: t1/2 (converted)): 25.7 h
Tmax ([5]; po, 10 mg, Day 1, 10 mg, White, median (range), read-out: Tmax): 1.01 h
